One experiment has as its system NF-kB. Description: NF-kB-luciferase assay system in C2C12 cell line. The experiment is classed as cell-based. To be noted: for Compare quercetin (EC50 NF-kB): NF-kB inhibitory activity relative to quercetin. The method, then: Activity of the complex was measured using a C2C12 cell line with a NF-kB-luciferase assay system (Affymetrix, Santa Clara, Calif.), and compared to a number of flavonoid controls.

Another experiment relates to IL-10. The experiment is described as follows: IL-10 level in mice fed a high-fat diet. The experiment is classed as in vivo. To be noted: mean ± standard deviation. As for the experimental part:
(§1) The effects of eriocitrin and eriodictyol on anti-inflammatory markers were determined in mice fed a high-fat diet and compared to negative control, untreated mice that were fed either a standard- or high-fat-diet. Eriocitrin and eriodictyol effects were also compared against ibuprofen- and hesperidin-treated, high-fat-diet-fed mice. The effects of these various treatments on the cytokines IL-6, IL-10, MCP-1, and TNF-alpha are shown below.

A further experiment concerns MCP-1. Description: MCP-1 level in mice fed a high-fat diet. The format is in vivo. To be noted: for MCP-1: high fat diet mice, mean ± standard deviation. The method, then: as §1
A short description of experiment [1]: Clinical study of metabolic syndrome symptoms (fasting glucose, insulin, hs-CRP, lipid panel). The format is in vivo. The conditions noted are these: humans, after 30 days, ≥10 hour fast, versus placebo. As for the experimental part:
A clinical study is performed in which subjects undergo a one-week run-in period during which subject document baseline data. Subjects meeting the inclusion/exclusion criteria are enrolled in the study and sent a glucometer to determine their fasting blood glucose levels. Those meeting the study criteria are enrolled in the study.
The subjects fast for at least 10 hours, and their fasting glucose, fasting insulin, hs-CRP levels, and lipid panels (including LDL, HDL, and triglycerides) are measured. Following these baseline measurements, subjects consume (1) 50 mg-2 g/day eriocitrin; (2) 50 mg-2 g/day eriocitrin, 50-250 mg/day neoeriocitrin, 50-250 mg/day hesperidin; or (3) a placebo. After 30 days, the subjects' glucose, insulin, hs-CRP, and lipid panel measurements are taken after a ≥10 hour fast.

Experiment [2] in a line: Total ORACFN (sum over the five reactive species). The format is biochemical. Further details: ORAC-FN: unit not given here. The conditions noted are these: for ORAC-FN: Table 5 summary, total ORACFN, unit not given; for Compare quercetin (ORAC-FN): anti-oxidant activity relative to quercetin. The method, then:
This example describes the anti-oxidant activity of the eriodictyol complex described in Table 1. Anti-oxidant activity was measured using an oxygen radical absorbance capacity assay for food and nutrition ([…]). The assay was performed using techniques known in the art, such as those disclosed in Ou, B. et al., J Agric and Food Chem, 2001, 49 (10): 4619-4626; Huang, D. et al., J Agric and Food Chem, 2002, 50 (7): 1815-1821; Ou, B. et al., J Agric and Food Chem, 2002, 50 (10): 2772-2777; Zhang, L. et al., Free Radic. Bio Med, 2007, 43 (suppl. 1): S17; Dubost, N.J. et al., Food Chem, 2007, 105 (2): 727-735; Zhang, L. et al., J Agric and Food Chem, 2009, 57(7): 2661-2667; and U.S. Pat. No. 7,132,296, the contents of all of which are incorporated herein by reference. The activity of the eriodictyol complex against peroxyl radicals, hydroxyl radicals, peroxynitrite, super oxide anion, and singlet oxygen was measured. The total […] was also measured.

Another experiment concerns IL-6. Description: IL-6 level in mice fed a high-fat diet. The format is in vivo. To be noted: for IL-6: high fat diet mice, mean ± standard deviation. As for the experimental part:
as §1

A further experiment relates to TNF-alpha. The experiment is described as follows: TNF-alpha level in mice fed a high-fat diet. The experiment is classed as in vivo. To be noted: mean ± standard deviation. As for the experimental part:
as §1

[3] abbreviates: Mus musculus, C2C12, Table 5 summary, unit inferred, read-out: EC50 NF-kB.
[4] abbreviates: Mus musculus, NF-kB inhibition, C2C12 cell line, NF-kB-luciferase, read-out: EC50.
Setting [5] is: high-fat-diet-fed mice, in words.

Each structure is given as a SMILES string. Converted amounts (≈) assume the structure as drawn. Like-named read-outs stand apart in the source and are kept apart here. Marks after values point to notes of the source that are not given here.

One may read the EC50 as the concentration at which the effect is half-maximal.

`C[C@@H]1O[C@@H](OC[C@H]2O[C@@H](Oc3cc(O)c4c(c3)O[C@H](c3ccc(O)c(O)c3)CC4=O)[C@H](O)[C@@H](O)[C@@H]2O)[C@H](O)[C@H](O)[C@H]1O` [Eriocitrin, eriodictyol 7-O-B-rutinoside]: the EC50 with NF-kB (setting [3]) was 71.4 µg/mL (≈ 120 µM). Also, the EC50 with NF-kB (setting [4]) came to 71.4 µg/mL (≈ 120 µM). Moreover, in the experiment with NF-kB, the “Compare quercetin (EC50 NF-kB)” value is 0.35. In addition, the IL-10 with IL-10 stood at 4.0 ± 2.2. Further, the MCP-1 in the experiment with MCP-1 was 19.3 ± 11.1^a. Besides, in the experiment with MCP-1 (setting [5]), the “MCP-1 levels in comparison to the negative controls” value is “significantly reduced”. Besides, in experiment [1], the HDL levels entry is listed as “increased”, the LDL levels result was “reduced”, the glucose levels entry is “reduced” and the hs-CRP levels result is on record as “reduced”. In experiment [1], the insulin levels result is given as “reduced” and the total cholesterol levels entry is “reduced”. In experiment [2], the ORAC-FN was 31355 and the “Compare quercetin (ORAC-FN)” value is listed as 0.475. Also, the IL-6 in the experiment on IL-6 is 3.1 ± 1.6^a. Moreover, the “IL-6 levels in comparison to the negative controls” value in the experiment with IL-6 (setting [5]) is reported as “significantly reduced”. Also, the TNF-alpha with TNF-alpha was determined as 2.4 ± 0.6.

Turning to `O=C1C[C@@H](c2ccc(O)cc2)Oc2cc(O)cc(O)c21` [Naringenin], the 50% effective concentration (EC50) in the experiment with NF-kB (setting [3]) turned out to be 32 µg/mL (≈ 118 µM). Further, the EC50 in the experiment with NF-kB (setting [4]) is 32 µg/mL (≈ 118 µM). Further, the “Compare quercetin (EC50 NF-kB)” value with NF-kB came to 0.78. In experiment [2], the ORAC-FN was 59454 and the “Compare quercetin (ORAC-FN)” value is listed as 0.901.

`CC(C)Cc1ccc(C(C)C(=O)O)cc1` (stereo not drawn) [Ibuprofen] registered an IL-10 in the experiment with IL-10 of 6.0 ± 4.5. Also, in the experiment on MCP-1, the MCP-1 is listed as 43.4 ± 31.5^ab. Moreover, in the experiment on IL-6, the IL-6 is reported as 21.9 ± 18.1^a. Also, the TNF-alpha with TNF-alpha was 1.2 ± 2.4.

Take `COc1ccc(-c2cc(=O)c3c(O)cc(O[C@@H]4O[C@H](CO[C@@H]5O[C@@H](C)[C@H](O)[C@@H](O)[C@H]5O)[C@@H](O)[C@H](O)[C@H]4O)cc3o2)cc1O` [Diosmin]: the EC50 with NF-kB (setting [3]) was found to be 349 µg/mL (≈ 573 µM). The EC50 with NF-kB (setting [4]) worked out at 349 µg/mL (≈ 573 µM). Also, the “Compare quercetin (EC50 NF-kB)” value in the experiment with NF-kB is 0.07. Also, in experiment [2], the ORAC-FN is 373 and the “Compare quercetin (ORAC-FN)” value was 0.006.

Regarding `COc1ccc([C@@H]2CC(=O)c3c(O)cc(O[C@@H]4O[C@H](CO[C@@H]5O[C@@H](C)[C@H](O)[C@@H](O)[C@H]5O)[C@@H](O)[C@H](O)[C@H]4O)cc3O2)cc1O` [Hesperidin 90, Hesperidin], the EC50 in the experiment on NF-kB (NF-kB inhibition, C2C12 cell line, NF-kB-luciferase) came to 275.70 µg/mL (≈ 452 µM). Moreover, the “Compare quercetin (EC50 NF-kB)” value in the experiment with NF-kB amounted to 0.09. In addition, the “EC50 NF-kB” value in the experiment with NF-kB (Table 5 summary, unit not given, in µg/mL) is 275.70. In addition, in experiment [2], the ORAC-FN amounted to 6067 and the “Compare quercetin (ORAC-FN)” value is given as 0.092.

As for `COc1ccc([C@@H]2CC(=O)c3c(O)cc(O)cc3O2)cc1O` [Hesperitin 95, Hesperitin], in the experiment on NF-kB (setting [3]), the EC50 worked out at 54.2 µg/mL (≈ 179 µM). Further, in the experiment on NF-kB (setting [4]), the EC50 was found to be 54.2 µg/mL (≈ 179 µM). Also, the “Compare quercetin (EC50 NF-kB)” value with NF-kB amounted to 0.46. In experiment [2], the ORAC-FN is recorded as 77875 and the “Compare quercetin (ORAC-FN)” value came out at 1.180.

In the experiment on IL-10, `COc1ccc([C@@H]2CC(=O)c3c(O)cc(O[C@@H]4O[C@H](CO[C@@H]5O[C@@H](C)[C@H](O)[C@@H](O)[C@H]5O)[C@@H](O)[C@H](O)[C@H]4O)cc3O2)cc1O` [Hesperidin] had an IL-10 of 5.3 ± 2.4. Further, the MCP-1 in the experiment on MCP-1 is recorded as 27.6 ± 9.0^a. The IL-6 in the experiment with IL-6 is on record as 5.9 ± 4.6^a. Besides, in the experiment with TNF-alpha, the TNF-alpha is 2.7 ± 0.3.

Turning to `O=c1c(O)c(-c2ccc(O)c(O)c2)oc2cc(O)cc(O)c12` [Quercetin•2H2O], the EC50 in the experiment on NF-kB (setting [4]) amounted to 31.5 µg/mL (≈ 104 µM).

Take `C[C@@H]1O[C@@H](O[C@H]2[C@H](Oc3cc(O)c4c(c3)O[C@H](c3ccc(O)cc3)CC4=O)O[C@H](CO)[C@@H](O)[C@@H]2O)[C@H](O)[C@H](O)[C@H]1O` [Naringin]: the concentration for a half-maximal effect (EC50) with NF-kB (setting [3]) and in the experiment on NF-kB (setting [4]) was 381 µg/mL (≈ 656 µM) in each case. Also, the “Compare quercetin (EC50 NF-kB)” value in the experiment on NF-kB worked out at 0.07. For the same molecule, the ORAC-FN in experiment [2] came out at 22389. Also, in experiment [2], the “Compare quercetin (ORAC-FN)” value is recorded as 0.339.

Source of the values: patent US10596185B2, “Flavonoid compositions and uses thereof” (INGREDIENTS BY NATURE, priority 2014, dated 2020).
